Key:
Swiss CD-1 mice [1] = tested on: Swiss CD-1 mice; set-up: method as in PMID 33155384; conditions: 10 and 25 mg/kg injections; cited from earlier work
Swiss CD-1 mice [2] = tested on: Swiss CD-1 mice; set-up: method as in PMID 32535718; conditions: 4 and 16 mg/kg subcutaneous injections; cited from earlier work
Swiss CD-1 mice [3] = assay: Open-field (OF) test, center versus periphery (anxiety-like behavior); type: in vivo; conditions: 10 mg/kg i.p.
Method: Male Swiss CD-1 mice (Janvier, Le Genest, France) weighing 30–35 g (6–8 weeks old), housed in temperature-controlled conditions (22 ± 1 °C) under a 12 h light/dark cycle and with free access to food and drinking water (standard laboratory diet, Panlab SL, Barcelona, Spain), were randomly assigned to an experimental group. Efforts were made to minimize animal use and suffering.
The anxiety-like effects of the test compounds were assessed through an OF test as described.[64] Animals were placed individually in the center of an open-field arena (25 cm length × 25 cm width × 40 cm height), and the time spent, in seconds, in the center (8 × 8 cm) or the periphery of the arena was monitored for 60 min (Smart 3.0 Panlab, Barcelona, Spain).

For CCCCC(NCC)C(=O)c1ccccc1 (stereo not drawn) [NEH, N-ethyl-hexedrone], the locomotor activity (Swiss CD-1 mice [1]) is listed as “increase in locomotor activity”, the CPP (Swiss CD-1 mice [2]) is listed as “significant CPP” and the “anxiogenic effect in OF test” value (Swiss CD-1 mice [3]) is listed as “acute anxiogenic effects”.
